Data as given in US12545652B2, “Crystalline forms of a TYK2 inhibitor” (Sareum Limited, priority 2020, dated 2026).

How the values were obtained:
[1] = Anti-solvent addition crystallisation at 60° C., observations and form fate by XRPD; format: physicochemical; conditions: for Crystalline Form fate by XRPD: Addition at 60° C.
Procedure: The equilibration of Form A in a range of solvents with thermal modulation indicated a range of suitable solvents and anti-solvents. Consequently, Form A was dissolved in a range of four solvents at an elevated temperature, clarified and charged with anti-solvent at the elevated temperature to assess the propensity of the compound towards anti-solvent-driven crystallisation.
2-(2,6-dichlorophenyl)-5-[4-(1,1-dioxo-1,4-thiazinane-4-carbonyl)anilino]oxazole-4-carboxamide Form A, 4×150-152 mg, was weighed into four crystallisation tubes. Four different solvents (see Table 8) were then charged to the solids and the resulting mixtures heated to 60° C. Where suspensions persisted, additional solvent was charged to achieve dissolution. Upon dissolution of the four mixtures, the solutions were clarified and aliquots containing ca. 30 mg of the compound were charged to four crystallisation tubes.
To each of the four aliquots was charged an anti-solvent (see Table 8), ca. 5 vol., at 60° C. and immediate observations were made. Observations were made after equilibration for 1 hour before additional anti-solvent, 5 vol., was charged to all mixtures. Where suspensions or immiscible mixtures had formed, no further anti-solvent was charged. To all solutions and hazes, additional anti-solvent up to 20 vol. total charge was added.
The mixtures were equilibrated at 60° C. for another hour before cooling to 25° C. over ca. 3 hours and equilibrated for ca. 14½ hours. […] Upon isolation, all solids were dried in vacuo under air for ca. 1 hour and then dried in the oven in vacuo at 45° C. for 70 hours.

[2] = Compression stability test (10×10^4N force); format: physicochemical
Procedure: Compression stability tests were carried out on samples from two batches of crystalline Form A and samples from two batches of Crystalline Form B. One pair of samples of Form A and Form B was subjected to compression under 10×10^4N force for 23 and 23¾ hours respectively to assess the impact upon form fate and chemical stability.
The other pair of samples of Form A and Form B was subjected to similar compression pressures over an extended duration of 7 days to assess the impact of prolonged compression force upon form fate and chemical stability.

For `NC(=O)c1nc(-c2c(Cl)cccc2Cl)oc1Nc1ccc(C(=O)N2CCS(=O)(=O)CC2)cc1` [Form A, 2-(2,6-dichlorophenyl)-5-[4-(1,1-dioxo-1,4-thiazinane-4-carbonyl)anilino]oxazole-4-carboxamide], the Observation on outcome ([1]; ID A1, THF/water, 4:1 10 vol., Cyclohexane, 25° C., 20 vol, 19 Hrs) was “Susp”, the Observation on outcome ([1]; ID A1, THF/water, 4:1 10 vol., Cyclohexane, 60° C., 5 vol. anti-solvent, 1 Hr) was “Susp” and the Observation on outcome ([1]; ID A1, THF/water, 4:1 10 vol., Cyclohexane, 60° C., 5 vol. anti-solvent, Immediate) was “Gum”. The Observation on outcome ([1]; ID A1, THF/water, 4:1 10 vol., Cyclohexane, 60° C., 10 vol. anti-solvent) was “Susp”, the Observation on outcome ([1]; ID A2, THF/water, 4:1 10 vol., Heptane, 25° C., 20 vol, 19 Hrs) was “Gummy” and the Observation on outcome ([1]; ID A2, THF/water, 4:1 10 vol., Heptane, 60° C., 5 vol. anti-solvent, 1 Hr) was “Susp”. For the same compound, the Observation on outcome ([1]; ID A2, THF/water, 4:1 10 vol., Heptane, 60° C., 5 vol. anti-solvent, Immediate) was “Gum”, the Observation on outcome ([1]; ID A2, THF/water, 4:1 10 vol., Heptane, 60° C., 10 vol. anti-solvent) was “Susp” and the Observation on outcome ([1]; ID A3, THF/water, 4:1 10 vol., Benzotrifluoride, 25° C., 20 vol, 19 Hrs) was “Susp”. For the same compound, the Observation on outcome ([1]; ID A3, THF/water, 4:1 10 vol., Benzotrifluoride, 60° C., 5 vol. anti-solvent, 1 Hr) was “Susp”, the Observation on outcome ([1]; ID A3, THF/water, 4:1 10 vol., Benzotrifluoride, 60° C., 5 vol. anti-solvent, Immediate) was “Susp” and the Observation on outcome ([1]; ID A3, THF/water, 4:1 10 vol., Benzotrifluoride, 60° C., 10 vol. anti-solvent) was “Susp”. For the same compound, the Observation on outcome ([1]; ID A4, THF/water, 4:1 10 vol., 2-Chlorobutane, 25° C., 20 vol, 19 Hrs) was “Susp”, the Observation on outcome ([1]; ID A4, THF/water, 4:1 10 vol., 2-Chlorobutane, 60° C., 5 vol. anti-solvent, 1 Hr) was “Susp” and the Observation on outcome ([1]; ID A4, THF/water, 4:1 10 vol., 2-Chlorobutane, 60° C., 5 vol. anti-solvent, Immediate) was “Susp”. The Observation on outcome ([1]; ID A4, THF/water, 4:1 10 vol., 2-Chlorobutane, 60° C., 10 vol. anti-solvent) was “Susp”, the Observation on outcome ([1]; ID B1, THF 25 vol., Cyclohexane, 25° C., 20 vol, 19 Hrs) was “Susp” and the Observation on outcome ([1]; ID B1, THF 25 vol., Cyclohexane, 60° C., 5 vol. anti-solvent, 1 Hr) was “Susp”. The Observation on outcome ([1]; ID B1, THF 25 vol., Cyclohexane, 60° C., 5 vol. anti-solvent, Immediate) was “Gum→Soln”, the Observation on outcome ([1]; ID B1, THF 25 vol., Cyclohexane, 60° C., 10 vol. anti-solvent) was “Susp” and the Observation on outcome ([1]; ID B2, THF 25 vol., Heptane, 25° C., 20 vol, 19 Hrs) was “Susp”. The Observation on outcome ([1]; ID B2, THF 25 vol., Heptane, 60° C., 5 vol. anti-solvent, 1 Hr) was “Susp”, the Observation on outcome ([1]; ID B2, THF 25 vol., Heptane, 60° C., 5 vol. anti-solvent, Immediate) was “Gum→Soln” and the Observation on outcome ([1]; ID B2, THF 25 vol., Heptane, 60° C., 10 vol. anti-solvent) was “Susp”. The Observation on outcome ([1]; ID B3, THF 25 vol., Benzotrifluoride, 25° C., 20 vol, 19 Hrs) was “Susp”, the Observation on outcome ([1]; ID B3, THF 25 vol., Benzotrifluoride, 60° C., 5 vol. anti-solvent, 1 Hr) was “Susp” and the Observation on outcome ([1]; ID B3, THF 25 vol., Benzotrifluoride, 60° C., 5 vol. anti-solvent, Immediate) was “Soln”. For the same compound, the Observation on outcome ([1]; ID B3, THF 25 vol., Benzotrifluoride, 60° C., 10 vol. anti-solvent) was “Susp”, the Observation on outcome ([1]; ID B4, THF 25 vol., 2-Chlorobutane, 25° C., 20 vol, 19 Hrs) was “Susp” and the Observation on outcome ([1]; ID B4, THF 25 vol., 2-Chlorobutane, 60° C., 5 vol. anti-solvent, 1 Hr) was “Susp”. For the same compound, the Observation on outcome ([1]; ID B4, THF 25 vol., 2-Chlorobutane, 60° C., 5 vol. anti-solvent, Immediate) was “Soln”, the Observation on outcome ([1]; ID B4, THF 25 vol., 2-Chlorobutane, 60° C., 10 vol. anti-solvent) was “Susp” and the Observation on outcome ([1]; ID C1, Nitromethane 50 vol., Cyclohexane, 25° C., 20 vol, 19 Hrs) was “Bi. Susp”. For the same compound, the Observation on outcome ([1]; ID C1, Nitromethane 50 vol., Cyclohexane, 60° C., 5 vol. anti-solvent, 1 Hr) was “Immiscible”, the Observation on outcome ([1]; ID C1, Nitromethane 50 vol., Cyclohexane, 60° C., 5 vol. anti-solvent, Immediate) was “Immiscible” and the Observation on outcome ([1]; ID C1, Nitromethane 50 vol., Cyclohexane, 60° C., 10 vol. anti-solvent) was “Immiscible”. The Observation on outcome ([1]; ID C2, Nitromethane 50 vol., Heptane, 25° C., 20 vol, 19 Hrs) was “Bi. Susp”, the Observation on outcome ([1]; ID C2, Nitromethane 50 vol., Heptane, 60° C., 5 vol. anti-solvent, 1 Hr) was “Soln” and the Observation on outcome ([1]; ID C2, Nitromethane 50 vol., Heptane, 60° C., 5 vol. anti-solvent, Immediate) was “Soln”. For the same compound, the Observation on outcome ([1]; ID C2, Nitromethane 50 vol., Heptane, 60° C., 10 vol. anti-solvent) was “Soln”, the Observation on outcome ([1]; ID C2, Nitromethane 50 vol., Heptane, 60° C., 15 vol. anti-solvent) was “Soln” and the Observation on outcome ([1]; ID C2, Nitromethane 50 vol., Heptane, 60° C., 20 vol. anti-solvent) was “Soln”. The Observation on outcome ([1]; ID C3, Nitromethane 50 vol., Benzotrifluoride, 25° C., 20 vol, 19 Hrs) was “Susp”, the Observation on outcome ([1]; ID C3, Nitromethane 50 vol., Benzotrifluoride, 60° C., 5 vol. anti-solvent, 1 Hr) was “Soln” and the Observation on outcome ([1]; ID C3, Nitromethane 50 vol., Benzotrifluoride, 60° C., 5 vol. anti-solvent, Immediate) was “Soln”. For the same compound, the Observation on outcome ([1]; ID C3, Nitromethane 50 vol., Benzotrifluoride, 60° C., 10 vol. anti-solvent) was “Soln”, the Observation on outcome ([1]; ID C3, Nitromethane 50 vol., Benzotrifluoride, 60° C., 15 vol. anti-solvent) was “Soln” and the Observation on outcome ([1]; ID C3, Nitromethane 50 vol., Benzotrifluoride, 60° C., 20 vol. anti-solvent) was “Soln”. The Observation on outcome ([1]; ID C4, Nitromethane 50 vol., 2-Chlorobutane, 25° C., 20 vol, 19 Hrs) was “Susp”, the Observation on outcome ([1]; ID C4, Nitromethane 50 vol., 2-Chlorobutane, 60° C., 5 vol. anti-solvent, 1 Hr) was “Soln” and the Observation on outcome ([1]; ID C4, Nitromethane 50 vol., 2-Chlorobutane, 60° C., 5 vol. anti-solvent, Immediate) was “Soln”. The Observation on outcome ([1]; ID C4, Nitromethane 50 vol., 2-Chlorobutane, 60° C., 10 vol. anti-solvent) was “Soln”, the Observation on outcome ([1]; ID C4, Nitromethane 50 vol., 2-Chlorobutane, 60° C., 15 vol. anti-solvent) was “Soln” and the Observation on outcome ([1]; ID C4, Nitromethane 50 vol., 2-Chlorobutane, 60° C., 20 vol. anti-solvent) was “Soln”. The Observation on outcome ([1]; ID D1, MeCN/water, 4:1 55 vol., Cyclohexane, 25° C., 20 vol, 19 Hrs) was “Immiscible”, the Observation on outcome ([1]; ID D1, MeCN/water, 4:1 55 vol., Cyclohexane, 60° C., 5 vol. anti-solvent, 1 Hr) was “Immiscible” and the Observation on outcome ([1]; ID D1, MeCN/water, 4:1 55 vol., Cyclohexane, 60° C., 5 vol. anti-solvent, Immediate) was “Immiscible”. For the same compound, the Observation on outcome ([1]; ID D1, MeCN/water, 4:1 55 vol., Cyclohexane, 60° C., 10 vol. anti-solvent) was “Immiscible”, the Observation on outcome ([1]; ID D2, MeCN/water, 4:1 55 vol., Heptane, 25° C., 20 vol, 19 Hrs) was “Bi. Susp” and the Observation on outcome ([1]; ID D2, MeCN/water, 4:1 55 vol., Heptane, 60° C., 5 vol. anti-solvent, 1 Hr) was “Immiscible”. The Observation on outcome ([1]; ID D2, MeCN/water, 4:1 55 vol., Heptane, 60° C., 5 vol. anti-solvent, Immediate) was “Immiscible”, the Observation on outcome ([1]; ID D2, MeCN/water, 4:1 55 vol., Heptane, 60° C., 10 vol. anti-solvent) was “Immiscible” and the Observation on outcome ([1]; ID D3, MeCN/water, 4:1 55 vol., Benzotrifluoride, 25° C., 20 vol, 19 Hrs) was “Susp”. The Observation on outcome ([1]; ID D3, MeCN/water, 4:1 55 vol., Benzotrifluoride, 60° C., 5 vol. anti-solvent, 1 Hr) was “Soln”, the Observation on outcome ([1]; ID D3, MeCN/water, 4:1 55 vol., Benzotrifluoride, 60° C., 5 vol. anti-solvent, Immediate) was “Soln” and the Observation on outcome ([1]; ID D3, MeCN/water, 4:1 55 vol., Benzotrifluoride, 60° C., 10 vol. anti-solvent) was “Haze”. The Observation on outcome ([1]; ID D3, MeCN/water, 4:1 55 vol., Benzotrifluoride, 60° C., 15 vol. anti-solvent) was “Immiscible”, the Observation on outcome ([1]; ID D3, MeCN/water, 4:1 55 vol., Benzotrifluoride, 60° C., 20 vol. anti-solvent) was “Immiscible” and the Observation on outcome ([1]; ID D4, MeCN/water, 4:1 55 vol., 2-Chlorobutane, 25° C., 20 vol, 19 Hrs) was “Bi. Susp”. The Observation on outcome ([1]; ID D4, MeCN/water, 4:1 55 vol., 2-Chlorobutane, 60° C., 5 vol. anti-solvent, 1 Hr) was “Soln”, the Observation on outcome ([1]; ID D4, MeCN/water, 4:1 55 vol., 2-Chlorobutane, 60° C., 5 vol. anti-solvent, Immediate) was “Soln” and the Observation on outcome ([1]; ID D4, MeCN/water, 4:1 55 vol., 2-Chlorobutane, 60° C., 10 vol. anti-solvent) was “Haze”. For the same compound, the Observation on outcome ([1]; ID D4, MeCN/water, 4:1 55 vol., 2-Chlorobutane, 60° C., 15 vol. anti-solvent) was “Haze”, the Observation on outcome ([1]; ID D4, MeCN/water, 4:1 55 vol., 2-Chlorobutane, 60° C., 20 vol. anti-solvent) was “Haze” and the “Crystalline Form fate by XRPD” value ([1]; MeCN/water, 4:1 55 vol., 2-Chlorobutane) was “Form A”. The “Crystalline Form fate by XRPD” value ([1]; MeCN/water, 4:1 55 vol., Benzotrifluoride) was “Form A”, the “Crystalline Form fate by XRPD” value ([1]; MeCN/water, 4:1 55 vol., Heptane) was “Form A” and the “Crystalline Form fate by XRPD” value ([1]; Nitromethane 50 vol., 2-Chlorobutane) was “Form C +”. For the same compound, the “Crystalline Form fate by XRPD” value ([1]; Nitromethane 50 vol., Benzotrifluoride) was “Form B”, the “Crystalline Form fate by XRPD” value ([1]; Nitromethane 50 vol., Heptane) was “Form B” and the “Crystalline Form fate by XRPD” value ([1]; THF 25 vol., 2-Chlorobutane) was “Form B”. The “Crystalline Form fate by XRPD” value ([1]; THF 25 vol., Benzotrifluoride) was “Form B”, the “Crystalline Form fate by XRPD” value ([1]; THF 25 vol., Heptane) was “Form B” and the “Crystalline Form fate by XRPD” value ([1]; THF/water, 4:1 10 vol., 2-Chlorobutane) was “Form A”. For the same compound, the “Crystalline Form fate by XRPD” value ([1]; THF/water, 4:1 10 vol., Benzotrifluoride) was “Form A”, the “HPLC assessment post-compression (chemical stability)” value ([2]; compression for 7 days) was “significant chemical degradation” and the “XRPD examination of solids isolated post-compression (form fate)” value ([2]; compression for both ca. 1 and 7 days) was “diffraction pattern matching the input Form A but of reduced diffraction resolution”. The “HPLC assessment post-compression (chemical stability)” value ([2]; compression for ca. 1 day (23 / 23¾ hours), 10×10^4N) was “no discernible chemical degradation”.
